Experimental data from patent US20240239774A1, “SOLUBLE ADENYLYL CYCLASE (SAC) INHIBITORS AND USES THEREOF” (Cornell University, priority 2021, published 2024).

Tests used:
[1] = system: wild type C57B1/6 male mice; test: Imiquimod-induced type 17 skin inflammation, topical treatment; format: in vivo, mouse; conditions: for Il17a and Il17f expression in the skin (qRT-PCR) / skin inflammation (ear thickness): imiquimod 6 days, then continued imiquimod plus topical twice a day: LRE1 3%, Clobetasol 0.05%; for skin inflammation (ear thickness): Example 1 […]
Method: Wild type C57B1/6 male mice 8-10 week old were purchased from Jackson labs. A 7 mm diameter circle was shaved and treated with Nair on the flank. Baseline ear thickness was measured. For 5 days, mice received daily treatment of 30 mg of 5% imiquimod cream (Taro) to each ear and to the 7 mm area on the flank. Ear thickness was recorded on days 3 and 5 to ensure peak inflammation had occurred. Mice were then randomized into three cohorts: vehicle, LRE1, and Clobetasol. […] Treatment with imiquimod was continued during this period as above. Ear thickness was recorded every day before the first dose of drug. On day 11, all mice were euthanized. A 7 mm punch biopsy was collected from the flank and both ears were removed. Skin was stored in RNAlater (Sigma) for qPCR or 10% formalin for immunohistochemistry.
For tissue, RNA was isolated according to specifications of the RNA easy plus universal mini kit (Qiagen). Tissue was homogenized using stainless steel beads in a bead beater. For frozen cell pellets, RNA was isolated according to specifications of the RNA easy plus mini kit (Qiagen). Samples were homogenized using Qiashredder columns (Qiagen). RNA quality control was performed using a nanodrop spectrophotometer. cDNA was made using the high-capacity rna-to-cdna kit (thermo fischer). The applied biosystems power SYBR green PCR master mix was used for qPCR. 40 cycles with annealing temperatures of 60 degrees celsius and a melting curve were performed using the QuantStudio 6 real-time PCR instrument (thermo fischer). Delta delta CT analysis was performed to determine relative transcription amongst samples normalized to GAPDH.

[2] = system: purified recombinant human sAC protein; format: biochemical; conditions: 1 mM ATP, 2 mM CaCl2, 4 mM MgCl2, 40 mM NaHCO3
Method: Assays for sAC activity using purified protein were performed in 100 μl reactions containing 4 mM MgCl2, 2 mM CaCl2, 1 mM ATP, 40 mM NaHCO3, 50 mM Tris pH 7.5, and 3 mM DTT. Each reaction contained ˜1,000,000 counts of α-^32P labeled ATP.
All in vitro adenylyl cyclase activity assays were performed via the “two-column” method measuring the conversion of [α-^32P] ATP into [^32P] cAMP, as previously described [References 81, 82]. Briefly, human sACt protein [Reference 21] was incubated in buffer containing 50 mM Tris-HCl, pH 7.5, 4 mM MgCl2, 2 mM CaCl2, 1 mM ATP, 3 mM DTT, 40 mM NaHCO3 in the presence of the indicated concentrations of different sAC inhibitors or vehicle (DMSO).

[3] = cited from earlier work

With `C[C@H]1C[C@H]2[C@@H]3CCC4=CC(=O)C=C[C@]4(C)[C@@]3(F)[C@@H](O)C[C@]2(C)[C@@]1(O)C(=O)CCl` [Clobetasol] the “Il17a and Il17f expression in the skin (qRT-PCR)” value [1] was “significant reductions in Il17a and Il17f expression” and the “skin inflammation (ear thickness)” value [1] was “significant reduction in skin inflammation”.
For `Cn1cc(Cc2cccc(Cl)c2)c(-c2cc(Cl)nc(N)n2)n1` [Example 11], the IC50 [2] was 0.075 µM.
Work on `Cn1cc(Cc2ccc(Cl)cc2)c(-c2cc(Cl)nc(N)n2)n1` [Example 13] yielded an IC50 [2] of roughly 1 µM.
With `Cn1cc(Cc2ccccc2Cl)c(-c2cc(Cl)nc(N)n2)n1` [Example 15] the IC50 [2] was 0.06 µM.
For `Nc1nc(Cl)cc(-c2nn(C(F)F)cc2Cc2ccccc2)n1` [Example 18], the IC50 [2] was 0.11 µM.
`COc1ccccc1Cc1cn(C)nc1-c1cc(Cl)nc(N)n1` [Example 28] gave an IC50 [2] of 0.058 µM.
`CNC(=O)c1ccccc1Cc1cn(C)nc1-c1cc(Cl)nc(N)n1` [Example 52] gave an IC50 [2] of 1.2 µM.
`Cn1cc(Cc2ccccc2OCCN2CCOCC2)c(-c2cc(Cl)nc(N)n2)n1` [Example 69, 4-chloro-6-[1-methyl-4-[[2-(2-morpholinoethoxy)phenyl]methyl]pyrazol-3-yl]pyrimidin-2-amine] gave a reduction in inflammation ([1]; imiquimod for one week, then imiquimod plus compound, over 4 days, N=5) of 50%.
Molecule `Nc1nc(Cl)cc(-c2nn(C(F)F)cc2Cc2ccccc2OCC(=O)N2CCOCC2)n1` [Example 95] has an IC50 [2] of 0.015 µM.
In the case of `Nc1nc(Cl)cc(N(Cc2ccsc2)C2CC2)n1` [LRE1], the “inflammation in the ears measured by ear calipers” value ([1]; applied at the same time as imiquimod, N=5) is reported as “reduce the inflammation”, the “Il17a and Il17f expression in the skin (qRT-PCR)” value [1] is reported as “significant reductions in Il17a and Il17f expression” and the “skin inflammation (ear thickness)” value [1] is reported as “significant reduction in skin inflammation”.
In the case of `CCCc1nn(C)c2c(=O)[nH]c(-c3cc(S(=O)(=O)N4CCN(C)CC4)ccc3OCC)nc12` [sildenafil], the half-lives [3] is listed as 4 to 5 h.
In the case of `CCCc1nc(C)c2c(=O)[nH]c(-c3cc(S(=O)(=O)N4CCN(CC)CC4)ccc3OCC)nn12` [vardenafil], the half-lives [3] is listed as 4 to 5 h.
